These results are taken from PubChem BioAssay (NCI).

Values joined by “and” are separate entries in the source; they are usually repeats but may differ in a detail not shown here. Equal values may be shown once.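 Method: 48-hour compound exposure of cells in 96-well plates, five concentrations, linear interpolation of endpoints. Here, GI50 denotes the concentration required for 50% inhibition of growth. The concentration for full growth arrest is given as TGI.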

Test systems include LXFL 529 NSCLC; RXF-631 renal; M19-MEL melanoma; HOP-18 NSCLC; XF 498 CNS; DMS 114 small cell lung; DMS 273 small cell lung; MCF7 breast; PC-3 prostate; MDA-MB-435; HS 578T breast.
Common to all, as to assay: DTP human tumour cell line panel, 48 h

In the case of `N#Cc1cc([N+](=O)[O-])ccc1NC(=O)C(=O)C(C(=O)/C=C/c1ccccc1)C1OC(=O)c2ccccc21` (stereo unspecified), the TGI in the assay with LXFL 529 NSCLC, in the assay on RXF-631 renal, with M19-MEL melanoma, in the assay on HOP-18 NSCLC, in the assay on XF 498 CNS and in the assay with DMS 114 small cell lung was above 100 µM each time.
Turning to `CC(C)=CC(=O)Cc1nc2cc(C)c(C)cc2[nH]c1=O`, the concentration for total growth inhibition (TGI) with LXFL 529 NSCLC, with RXF-631 renal, with M19-MEL melanoma, in the assay with HOP-18 NSCLC and in the assay on DMS 273 small cell lung was above 100 µM each time.
In the case of `N.N.NCCCCN.O=C([O-])C1(C(=O)[O-])CCC1.O=C([O-])C1(C(=O)[O-])CCC1.[Pt+4].[Pt+4]`, the GI50 in the assay with LXFL 529 NSCLC, in the assay with HOP-18 NSCLC and in the assay with DMS 273 small cell lung was above 100 µM throughout. Further, the TGI in the assay with LXFL 529 NSCLC, with HOP-18 NSCLC and in the assay on DMS 273 small cell lung was above 100 µM throughout.
In the case of `COc1ccc2nc3ccccc3c(NCCCCCCN(C)CCCl)c2c1`, the TGI in the assay with LXFL 529 NSCLC was 1.76 µM; in the assay on M19-MEL melanoma, 1.65 µM; with XF 498 CNS it was 0.845 µM; in the assay on DMS 273 small cell lung, 1.26 µM; in the assay with DMS 114 small cell lung, 1.69 µM.
With `CC1C=CC(=O)C(n2cc(F)c(=O)[nH]c2=O)O1` (stereo unspecified), the TGI is 48 µM with RXF-631 renal; 36.3 µM in the assay with M19-MEL melanoma; 22.6 µM with HOP-18 NSCLC; 28.7 µM with XF 498 CNS; 47.4 µM with DMS 273 small cell lung; 31.5 µM with DMS 114 small cell lung.
`Cc1ccccc1CN1CC=c2ccccc2=N1`: the TGI in the assay on RXF-631 renal, in the assay on M19-MEL melanoma, in the assay on HOP-18 NSCLC, in the assay with XF 498 CNS, in the assay on DMS 273 small cell lung and in the assay with DMS 114 small cell lung was above 100 µM each time.
As for `Cc1ccccc1C(C#N)C(=O)C(=O)Nc1cccc(Cl)c1` (stereo unspecified), the TGI with RXF-631 renal is above 100 µM; with M19-MEL melanoma, 95.5 µM; with XF 498 CNS, above 100 µM; in the assay on DMS 273 small cell lung, above 100 µM; in the assay with DMS 114 small cell lung it was above 100 µM.
As for `c1ccc(CN(Cn2cccn2)Cn2cccn2)nc1`, the TGI in the assay with LXFL 529 NSCLC, with RXF-631 renal, in the assay with M19-MEL melanoma, in the assay on XF 498 CNS, in the assay with DMS 273 small cell lung and in the assay with DMS 114 small cell lung was above 100 µM each time.
Consider `Nc1ccn(C2CC(CO)C(O)C2O)c(=O)n1` (stereo unspecified), for which the TGI in the assay with LXFL 529 NSCLC, with RXF-631 renal, in the assay on M19-MEL melanoma, with HOP-18 NSCLC, in the assay with DMS 273 small cell lung and with DMS 114 small cell lung was above 57.7 µM in each case.
`CN(C)CCNC(=O)c1cccc2[nH]c(-c3ccccc3)nc12`: the TGI in the assay with RXF-631 renal came to 57.9 µM; in the assay on M19-MEL melanoma it was 33.5 µM; in the assay on HOP-18 NSCLC, 46.1 µM; in the assay with DMS 273 small cell lung, 39.6 µM; in the assay with DMS 114 small cell lung, 32.3 µM.
Consider `CO[C@@H]1[C@H](OC(=O)NC(=O)CCl)CC[C@]2(CO2)[C@H]1[C@@]1(C)O[C@@H]1CC=C(C)C`, for which the GI50 in the assay on MCF7 breast was 10.7 µM; with LXFL 529 NSCLC, 6.1 µM; with M19-MEL melanoma, 1.17 µM; in the assay on PC-3 prostate it was 25.3 µM; in the assay with MDA-MB-435, 5.68 µM; with DMS 114 small cell lung, 2.17 µM. The TGI is 44.4 µM and 180 µM in the assay on MCF7 breast; 20.9 µM with LXFL 529 NSCLC; 3.14 µM with RXF-631 renal; 24.2 µM in the assay with M19-MEL melanoma; 28.6 µM and 57.2 µM in the assay on PC-3 prostate; 29.3 µM and 36.8 µM in the assay with MDA-MB-435. Further, the TGI is 63.7 µM and 157 µM in the assay on HS 578T breast; 23.4 µM with DMS 114 small cell lung.
In the case of `O=c1cnn2c(n1)sc1ccc3ccccc3c12`, the TGI in the assay on LXFL 529 NSCLC, in the assay with M19-MEL melanoma, with HOP-18 NSCLC, with XF 498 CNS, in the assay on DMS 273 small cell lung and in the assay on DMS 114 small cell lung was above 100 µM throughout.
`COC(=O)C(Cl)=C1CC1`: the TGI in the assay with LXFL 529 NSCLC was 29.5 µM; in the assay with M19-MEL melanoma, above 100 µM; in the assay with XF 498 CNS, 88.7 µM; in the assay on DMS 273 small cell lung, above 100 µM; in the assay on DMS 114 small cell lung, 95.6 µM.
Take `O=[N+]([O-])c1nccn1COCCF`: the total growth inhibition concentration (TGI) in the assay with LXFL 529 NSCLC, in the assay on M19-MEL melanoma, in the assay with XF 498 CNS and in the assay with DMS 114 small cell lung was above 100 µM in each case.
As for `Cc1ccc(Cl)c(NC(=O)C(=O)C(C(=O)c2ccncc2)C2OC(=O)c3ccccc32)c1` (stereo unspecified), the TGI in the assay with LXFL 529 NSCLC, in the assay on RXF-631 renal, with M19-MEL melanoma, in the assay on HOP-18 NSCLC, in the assay on XF 498 CNS and in the assay on DMS 114 small cell lung was above 100 µM in each case.
`O=C1C(=O)C(Br)(Br)C(Br)=C1Br`: the TGI with LXFL 529 NSCLC was 29 µM; with RXF-631 renal it was above 100 µM; in the assay on M19-MEL melanoma, 34.4 µM; with HOP-18 NSCLC, 29.8 µM; in the assay with DMS 273 small cell lung, 48.1 µM; in the assay with DMS 114 small cell lung, 40.8 µM.
For `Cc1cc(Cl)cc2c1NC(=O)C2(O)C(C)C(=O)c1ccc(Cl)cc1` (stereo unspecified), the TGI with LXFL 529 NSCLC was above 100 µM; with M19-MEL melanoma, 26.2 µM; in the assay with HOP-18 NSCLC, above 100 µM; with XF 498 CNS, above 100 µM; in the assay with DMS 273 small cell lung, above 100 µM; in the assay with DMS 114 small cell lung, above 96.6 µM.
Regarding `O=c1c2ccccc2c2nc3ccccc3nc2n1C1CCCCC1`, the concentration for total growth inhibition (TGI) with LXFL 529 NSCLC, in the assay on M19-MEL melanoma, in the assay with DMS 273 small cell lung and with DMS 114 small cell lung was above 100 µM in each case.
Turning to `CCN(CC)C(=O)COc1ccc(Br)cc1Br`, the TGI with LXFL 529 NSCLC, in the assay on RXF-631 renal, in the assay on M19-MEL melanoma, in the assay on HOP-18 NSCLC, with DMS 273 small cell lung and in the assay on DMS 114 small cell lung was above 100 µM in each case.
`CCOC(=O)c1c(C(F)(F)F)n([O-])c2ccc(OC)cc2[n+]1=O`: the GI50 was 4.38 µM in the assay with MCF7 breast, 2.99 µM in the assay on PC-3 prostate, 4.47 µM in the assay with MDA-MB-435 and 4.07 µM in the assay with HS 578T breast. The TGI was 65 µM with MCF7 breast, above 100 µM with PC-3 prostate, 76 µM in the assay on MDA-MB-435 and 46.2 µM with HS 578T breast.
